Measured values: patent US20050101595A1, “N-containing cycloalkyl-substituted amino-thiazole derivatives and pharmaceutical compositions for inhibiting cell proliferation and methods for their use” (PFIZER INC., priority 2003, published 2005)
pIC50, pKi: −log10 of the molar value. Where a name gives a salt, the structure may show the parent alone.

What was measured:
[1] = tested on: HCT-116 cell line; test: Inhibition of cell growth, tetrazolium salt (MTT) assay; format: cell-based; details: Homo sapiens, MTT; for inhibition at 0.175 µM: HCT-116, HCT-116 cells, compound at 0.175 uM; for pIC50: HCT-116, 120 h, first HCT-116 column (c4), three to five days, read-out: HCT-116 IC50
In short: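 HCT-116 cells in McCoy's 5A medium received compound 4 h after plating (0.5% v/v DMSO) and were incubated three to five days at 37° C, 5% CO2. MTT (0.2 mg/mL final) then added for 4 h; DMSO-solubilized formazan read at 540 nm against 0.5% DMSO-treated controls.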

[2] = biological target: CDK2/Cyclin A (Homo sapiens, UniProt P24941); test: Inhibition of CDK2/Cyclin A Retinoblastoma Kinase Activity; format: biochemical; details: for inhibition at 0.05 µM: read-out: % inhibition of CDK2 (@ 0.05 μM), compound at 0.05 μM; for pKi: apparent Ki, CDK2/proteolyzed cyclin A, Rb fragment substrate, 25 μM ATP
Protocol: Cyclin-dependent kinase activity was measured by quantifying the enzyme-catalyzed, time-dependent incorporation of radioactive phosphate from [^32P]ATP or [^33P]ATP into a protein substrate. Unless noted otherwise, assays were performed in 96-well plates in a total volume of 50 μL, in the presence of 10 mM HEPES (N-[2-hydroxyethyl]piperazine-N′-[2-ethanesulfonic acid]) (pH 7.4), 10 mM MgCl2, 25 μM adenosine triphosphate (ATP), 1 mg/mL ovalbumin, 5 μg/mL leupeptin, 1 mM dithiothreitol, 10 mM β-glycerophosphate, 0.1 mM sodium vanadate, 1 mM sodium fluoride, 2.5 mM ethylene glycol-bis(β-aminoethyl ether)-N,N,N′N′-tetraacetic acid (EGTA), 2% (v/v) dimethylsulfoxide, and 0.03-0.4 μCi [^32/33P]ATP per reaction. Reactions were initiated with enzyme, incubated at 30° C., and terminated after 20 minutes by the addition of ethylenediaminetetraacetic acid (EDTA) to 250 mM. The phosphorylated substrate was then captured on a nitrocellulose or phosphocellulose membrane using a 96-well filtration manifold, and unincorporated radioactivity was removed by repeated washing with 0.85% phosphoric acid. Radioactivity was quantified by exposing the dried membranes to a phosphorimager.
Inhibition was measured relative to control wells that contained all reaction components including 2% (v/v) DMSO but no compound, after subtraction of background radioactivity measured in the absence of enzyme. Apparent Ki values of discrete compounds were measured by assaying enzyme activity in the presence of different inhibitor compound concentrations and subtracting the background radioactivity measured in the absence of enzyme. The kinetic parameters (kcat, Km for ATP) were measured for each enzyme under the usual assay conditions by determining the dependence of initial rates on ATP concentration. Inhibition data were fit to an equation for competitive inhibition using Kaleidagraph (Synergy Software), or were fit to an equation for competitive tight-binding inhibition using the software KineTic (BioKin, Ltd.).
Inhibition of CDK2/Cyclin A Retinoblastoma Kinase Activity:
CDK2 was purified using published methodology (Rosenblatt et al., “Purification and Crystallization of Human Cyclin-dependent Kinase 2,” J. Mol. Biol., vol. 230, 1993, pp. 1317-1319) from insect cells that had been infected with a baculovirus expression vector. […] A complex of CDK2 and proteolyzed cyclin A was prepared and purified by gel filtration. The substrate for this assay was the same Rb substrate fragment used for the CDK4 assays, and the methodology of the CDK2/delta cyclin A and the CDK4/delta cyclin D3 assays was essentially the same, except that CDK2 was present at 10 nM or 19 nM. The duration of the assay was 60 or 75 minutes, during which the time-dependence of product formation was linear and initial rate conditions were met. And, the percent inhibitions of the compounds of Example O through Example R were calculated as described above and shown in Table 2.

| Compound | inhibition at 0.175 µM [1] | inhibition at 0.05 µM [2] | pIC50 [1] | pKi [2] |
| --- | --- | --- | --- | --- |
| NC(=O)CCNCCCS(=O)(=O)N1CCC(Nc2nc(N)c(C(=O)c3c(F)cccc3F)s2)CC1 [Example V122] | 32% | 79% | – | – |
| Nc1nc(NC2CCN(S(=O)(=O)CCCNC3CCCCCCC3)CC2)sc1Cc1c(F)cccc1F [Example V158] | 23% | 90% | – | – |
| CC1(C)CCCN(CCCS(=O)(=O)N2CCC(Nc3nc(N)c(C(=O)c4c(F)cccc4F)s3)CC2)C1 [Example V46] | 71% | 77% | – | – |
| Nc1nc(NC2CCN(S(=O)(=O)CCCN3CCCCC3CCO)CC2)sc1C(=O)c1c(F)cccc1F (stereo not drawn) [Example V38] | 1% | 80% | – | – |
| CC(C)NCCCS(=O)(=O)N1CCC(Nc2nc(N)c(C(=O)c3c(F)cccc3F)s2)CC1 [Example V93] | 11% | 84% | – | – |
| Nc1nc(NC2CCN(S(=O)(=O)CCCNCC3COCCO3)CC2)sc1C(=O)c1c(F)cccc1F (stereo not drawn) [Example V163] | 2% | 83% | – | – |
| Nc1nc(NC2CCN(S(=O)(=O)CCCNCCc3cccnc3)CC2)sc1C(=O)c1c(F)cccc1F [Example V114] | 17% | 86% | – | – |
| Nc1nc(NC2CCN(S(=O)(=O)CCCN[C@H]3CC[C@H](O)CC3)CC2)sc1C(=O)c1c(F)cccc1F [Example V39] | 0% | 84% | – | – |
| CN(C)CCCNCCCS(=O)(=O)N1CCC(Nc2nc(N)c(C(=O)c3c(F)cccc3F)s2)CC1 [Example V15] | 11% | 62% | – | – |
| Nc1nc(NC2CCN(S(=O)(=O)CCCNCc3ccccc3F)CC2)sc1C(=O)c1c(F)cccc1F [Example V26] | 76% | 92% | – | – |
| Nc1nc(NC2CCN(S(=O)(=O)CCCN3CCC(O)CC3)CC2)sc1C(=O)c1c(F)cccc1F [Example V25] | 16% | 73% | – | – |
| C=CCNCCCS(=O)(=O)N1CCC(Nc2nc(N)c(C(=O)c3c(F)cccc3F)s2)CC1 [Example K57, {2-[1-(3-Allylamino-propane-1-sulfonyl)-piperidin-4-ylamino]-4-amino-thiazol-5-yl}-(2,6-difluoro-phenyl)-methanone. Trifluoroacetic Acid Salt] | – | – | 6.32 | 8.15 |
| Nc1nc(NC2CCN(S(=O)(=O)CCCNC3CCC3)CC2)sc1C(=O)c1c(F)cccc1F [Example V63] | 13% | 78% | – | – |
| CC(CN(C)C)NCCCS(=O)(=O)N1CCC(Nc2nc(N)c(C(=O)c3c(F)cccc3F)s2)CC1 (stereo not drawn) [Example V126] | 6% | 84% | – | – |
| CCN(CC)CCCNCCCS(=O)(=O)N1CCC(Nc2nc(N)c(C(=O)c3c(F)cccc3F)s2)CC1 [Example V14] | 18% | 75% | – | – |
| CC(NCCCS(=O)(=O)N1CCC(Nc2nc(N)c(C(=O)c3c(F)cccc3F)s2)CC1)c1ccccc1 (stereo not drawn) [Example V53] | 75% | 91% | – | – |
| Nc1nc(NC2CCN(S(=O)(=O)CCCNCc3cccc(F)c3)CC2)sc1C(=O)c1c(F)cccc1F [Example V178, (4-Amino-2-{[1-({3-[(3-fluorobenzyl)amino]propyl}sulfonyl)-4-piperidinyl]amino}-1,3-thiazol-5-yl)(2,6-difluorophenyl)methanone.] | – | – | 7.10 | 8.34 |
| Cc1nnc(CCNCCCS(=O)(=O)N2CCC(Nc3nc(N)c(C(=O)c4c(F)cccc4F)s3)CC2)[nH]1 [Example V174] | 26% | 84% | – | – |
| Cc1ccccc1CNCCCS(=O)(=O)N1CCC(Nc2nc(N)c(C(=O)c3c(F)cccc3F)s2)CC1 [Example V184, (4-Amino-2-{[1-({3-[(2-methylbenzyl)amino]propyl}sulfonyl)-4-piperidinyl]amino}-1,3-thiazol-5-yl)(2,6-difluorophenyl)methanone.] | – | – | 7.22 | 8.44 |
| Nc1nc(NC2CCN(S(=O)(=O)CCCNCCN3CCCCC3)CC2)sc1C(=O)c1c(F)cccc1F [Example V5] | 7% | 79% | – | – |

| Compound | inhibition at 0.175 µM [1] | inhibition at 0.05 µM [2] | pIC50 [1] | pKi [2] |
| --- | --- | --- | --- | --- |
| CCCCCNCCCS(=O)(=O)N1CCC(Nc2nc(N)c(C(=O)c3c(F)cccc3F)s2)CC1 [Example V89] | 42% | 85% | – | – |
| COCCN(C)CCCS(=O)(=O)N1CCC(Nc2nc(N)c(C(=O)c3c(F)cccc3F)s2)CC1 [Example V107] | 36% | 78% | – | – |
| Nc1nc(NC2CCN(S(=O)(=O)CCCNCCCN3CCCC3)CC2)sc1C(=O)c1c(F)cccc1F [Example V73] | 0% | 82% | – | – |
| Cc1ccnc(NCCCS(=O)(=O)N2CCC(Nc3nc(N)c(C(=O)c4c(F)cccc4F)s3)CC2)c1 [Example V109] | 0% | 85% | – | – |
| CC(O)CCNCCCS(=O)(=O)N1CCC(Nc2nc(N)c(C(=O)c3c(F)cccc3F)s2)CC1 (stereo not drawn) [Example V81] | 5% | 78% | – | – |
| Nc1nc(NC2CCN(S(=O)(=O)CCCNCCc3ccccn3)CC2)sc1C(=O)c1c(F)cccc1F [Example V8] | 18% | 81% | – | – |
| Nc1nc(NC2CCN(S(=O)(=O)CCCNC3CCCCCC3)CC2)sc1C(=O)c1c(F)cccc1F [Example V159] | 8% | 88% | – | – |
| Nc1nc(NC2CCN(S(=O)(=O)CCCNCc3ccc(F)cc3)CC2)sc1C(=O)c1c(F)cccc1F [Example V182, (4-Amino-2-{[1-({3-[(4-fluorobenzyl)amino]propyl}sulfonyl)-4-piperidinyl]amino}-1,3-thiazol-5-yl)(2,6-difluorophenyl)methanone.] | – | – | 7.15 | 8.33 |
| Nc1nc(NC2CCN(S(=O)(=O)CCCNc3ccc4ccccc4n3)CC2)sc1C(=O)c1c(F)cccc1F [Example V110] | 2% | 67% | – | – |
| CN(CCC#N)CCCS(=O)(=O)N1CCC(Nc2nc(N)c(C(=O)c3c(F)cccc3F)s2)CC1 [Example V66] | 10% | 82% | – | – |
| CN(C)C1CCN(CCCS(=O)(=O)N2CCC(Nc3nc(N)c(C(=O)c4c(F)cccc4F)s3)CC2)C1 (stereo not drawn) [Example V99] | 0% | 69% | – | – |
| CCN(CCCCO)CCCS(=O)(=O)N1CCC(Nc2nc(N)c(C(=O)c3c(F)cccc3F)s2)CC1 [Example V108] | 2% | 79% | – | – |
| CCSCCNCCCS(=O)(=O)N1CCC(Nc2nc(N)c(C(=O)c3c(F)cccc3F)s2)CC1 [Example V129] | 49% | 88% | – | – |
| Cc1cccc(NCCCS(=O)(=O)N2CCC(Nc3nc(N)c(C(=O)c4c(F)cccc4F)s3)CC2)n1 [Example V62] | 0% | 91% | – | – |
| COCC(C)NCCCS(=O)(=O)N1CCC(Nc2nc(N)c(C(=O)c3c(F)cccc3F)s2)CC1 (stereo not drawn) [Example V58] | 10% | 80% | – | – |
| CC1CCN(CCCS(=O)(=O)N2CCC(Nc3nc(N)c(C(=O)c4c(F)cccc4F)s3)CC2)CC1 [Example V102] | 89% | 80% | – | – |
| Nc1nc(NC2CCN(S(=O)(=O)CCCNCCCc3c[nH]cn3)CC2)sc1C(=O)c1c(F)cccc1F [Example V146] | 13% | 82% | – | – |
| Nc1nc(NC2CCN(S(=O)(=O)CCCNCCc3ccncc3)CC2)sc1C(=O)c1c(F)cccc1F [Example V94] | 0% | 87% | – | – |
| Nc1nc(NC2CCN(S(=O)(=O)CCCNC3CCCCC3)CC2)sc1C(=O)c1c(F)cccc1F [Example K55, {4-Amino-2-[1-(3-cyclohexylamino-propane-1-sulfonyl)-piperidin-4-ylamino]-thiazol-5-yl}-(2,6-difluoro-phenyl)-methanone] | – | – | 6.17 | 8.10 |
